Laboratory results from patent US5811462A, “HIV Protease inhibitors useful for the treatment of AIDS” (Merck & Co., Inc., priority 1997, dated 1998).

molecular target: T1, HIV Protease (Human immunodeficiency virus type 1 group M subtype B, UniProt P04585); assay: Inhibition of microbial expressed HIV protease (peptide substrate cleavage, HPLC of products); type: biochemical; details: protease expressed in Eschericia coli, pH 5.5, 30° C., 1 hour
T1 construct: the protease expressed in Eschericia coli; made in house; host or cells: Escherichia coli
Method: Assay for Inhibition of Microbial Expressed HIV Protease
Inhibition studies of the reaction of the protease expressed in Eschericia coli with a peptide substrate [Val-Ser-Gln-Asn-(betanapthyl)Ala-Pro-Ile-Val, 0.5 mg/mL at the time the reaction is initiated] were in 50 mM Na acetate, pH 5.5, at 30° C. for 1 hour. Various concentrations of inhibitor in 1.0 μl DMSO were added to 25 μl of the peptide solution in water. The reaction is initiated by the addition of 15 μl of 0.33 nM protease (0.11 ng) in a solution of 0.133M Na acetate pH 5.5 and 0.1% bovine serum albumin. The reaction was quenched with 160 μl of 5% phosphoric acid. Products of the reaction were separated by HPLC (VYDAC wide pore 5 cm C-18 reverse phase, acetonitrile gradient, 0.1% phosphoric acid). The extent of inhibition of the reaction was determined from the peak heights of the products.

| IC50 | SMILES |
| --- | --- |
| 0.025 nM | O=C(N[C@H]1c2ccccc2C[C@H]1O)[C@H](Cc1ccccc1)C[C@H](O)CNC(=O)[C@H]1[C@H](C(=O)N(Cc2ccccc2)Cc2ccccc2)[C@@H]2C=C[C@H]1C2 [C] |
| 82.8 nM | CC(C)(C)NC(=O)[C@H]1[C@H](C(=O)NC[C@@H](O)C[C@@H](Cc2ccccc2)C(=O)N[C@H]2c3ccccc3C[C@H]2O)[C@H]2C=C[C@@H]1C2 [B] |
| 0.055 nM | O=C(N[C@H]1c2ccccc2C[C@H]1O)[C@H](Cc1ccccc1)C[C@H](O)CNC(=O)[C@H]1[C@H](C(=O)NCCc2ccccc2)[C@@H]2C=C[C@H]1C2 [A] |
